Tested on: SARS-CoV-2 (D614G)
Assay type: cell-based
Settings: 10 µM

In the case of `CN(C)C(=O)COC(=O)Cc1ccc(OC(=O)c2ccc(NC(=N)N)cc2)cc1` [Camostat, camostat], the “Percentage of infection inhibition” value is reported as 85%.
